Series [1] can be described thus: Surface tension of surfactants diluted 200 and 6000 times. Type of series: physicochemical. The note with it: 25° C.; for Surface tension 1:200: surfactant diluted 200 times with triple distilled water; for Surface tension 1:6000: surfactant diluted 6000 times with triple distilled water. The protocol: We classify surfactants into three types: anionic surfactants, zwitterionic surfactants, and nonionic surfactants. Experimental studies on the surface tension and acute toxicity of fish were conducted on the above-mentioned main surfactants and other kinds of surfactants used in shampoo, bath and other care products.
(§1) Test method. The experimental environment is at a constant temperature of 25° C., the surfactants is diluted 200 and 6000 times with triple distilled water. The surface tension is tested by JY-200C full-automatic interfacial tensiometer, referring to (GB5545 Surfactant Determination of surface tension by pulling up liquid film). The fish acute toxicity test is carried out tin the aqueous solution diluted 6000 times with surfactant, referencing to (GB/T 21281-2007 fish acute toxicity test classification test method of hazardous chemicals).

Another series concerns fish. In words: Fish acute toxicity test of surfactants. The note with it: for survival time: fish in aqueous solution of surfactant diluted 6000 times, 25° C.; for fish survival: fish in surfactant solution at 1:6000. Type of series: in vivo. On the procedure:
as §1

Consider Imidazoline (import) [ZMLj], for which, in series [1], the “Surface tension 1:200” value is on record as 28.5 mN/m and the “Surface tension 1:6000” value came to 31.3 mN/m. Moreover, in the series with fish, the survival time is 64 min.

On to Sodium Cocoyl Isethionate-85 [SCI-85], for which, in series [1], the “Surface tension 1:200” value was 30.6 mN/m and the “Surface tension 1:6000” value is given as 42.8 mN/m. The molecule also had a survival time in the series on fish of 24 min.

For cocamidopropyl betaine [CAB], in series [1], the “Surface tension 1:200” value was found to be 31.3 mN/m and the “Surface tension 1:6000” value came out at 32.4 mN/m. This molecule also registered a survival time in the series with fish of 27 min.

Regarding “Coconut oil fatty acid diethanolamide [Shampoo 6501]”, in series [1], the “Surface tension 1:200” value is 26.0 mN/m and the “Surface tension 1:6000” value is 27.6 mN/m. In the series with fish, this molecule registered a survival time of 44 min.

Consider Sodium secondary alkyl sulfonate [SAS], for which, in series [1], the “Surface tension 1:200” value came to 31.3 mN/m and the “Surface tension 1:6000” value was found to be 41.5 mN/m. Also, the survival time in the series with fish came to 41 min.

Consider `CCCCCCCCCCCCOS(=O)(=O)[O-].[Na+]` [Shampoo K12, Sodium lauryl sulfate], for which, in series [1], the “Surface tension 1:200” value is 35.0 mN/m and the “Surface tension 1:6000” value is listed as 40.8 mN/m.

On to sodium laureth ether sulfate [AES], for which, in series [1], the “Surface tension 1:200” value came out at 36.4 mN/m and the “Surface tension 1:6000” value came to 36.2 mN/m.

With Alkyl glycoside (import) [APGj], in series [1], the “Surface tension 1:200” value stood at 28.1 mN/m and the “Surface tension 1:6000” value came out at 28.6 mN/m. The molecule further had a survival time with fish of 25 min.

Turning to “Fatty alcohol polyoxyethylene ether [AEO-9]”, in series [1], the “Surface tension 1:200” value turned out to be 30.2 mN/m and the “Surface tension 1:6000” value turned out to be 30.4 mN/m. The survival time in the series on fish came to 18 min.

As to `CCCCCCCCCCCCOS(=O)(=O)O.N` [Shampoo K12-A, ammonium lauryl sulfate], in series [1], the “Surface tension 1:200” value amounted to 26.7 mN/m and the “Surface tension 1:6000” value is given as 38.9 mN/m.

Take “Sodium dodecyl ether phosphate [Shampoo 1211]”: in series [1], the “Surface tension 1:200” value came to 35.2 mN/m and the “Surface tension 1:6000” value is recorded as 40.5 mN/m. This molecule yielded a survival time in the series on fish of 284 min.

In the case of “Lauramide propyl amine oxide [Shampoo 4501]”, in series [1], the “Surface tension 1:200” value stood at 30.5 mN/m and the “Surface tension 1:6000” value came to 31.2 mN/m. The molecule further returned a survival time in the series with fish of 15 min.

For “Fatty alcohol polyoxyethylene ether [AEO-3]”, in series [1], the “Surface tension 1:200” value was 27.2 mN/m and the “Surface tension 1:6000” value turned out to be 27.3 mN/m. Besides, the survival time in the series on fish worked out at 27 min.

Imidazoline [MZL]: in series [1], the “Surface tension 1:200” value is 29.1 mN/m and the “Surface tension 1:6000” value is 45.5 mN/m. This molecule also came in with a survival time with fish of 134 min.

As to Methyl glucose dioleate [DOE-120], in series [1], the “Surface tension 1:200” value was found to be 42.6 mN/m and the “Surface tension 1:6000” value is reported as 49.4 mN/m. Moreover, in the series on fish, the survival time is over 1440 min and the fish survival amounted to 24 h.

As to “Fatty alcohol polyoxyethylene ether [AEO-7]”, in series [1], the “Surface tension 1:200” value is listed as 27.6 mN/m and the “Surface tension 1:6000” value is reported as 29.3 mN/m. The same molecule gave a survival time in the series with fish of 21 min.

With Alkyl glycoside (C12-C14) [APG2], in series [1], the “Surface tension 1:200” value was determined as 28.2 mN/m and the “Surface tension 1:6000” value was 28.5 mN/m. Further, in the series with fish, the survival time was 25 min.

As to Alkyl glycoside (C8-C10) [APG1], in series [1], the “Surface tension 1:200” value is reported as 28.3 mN/m and the “Surface tension 1:6000” value was 47.3 mN/m. The survival time with fish worked out at 33 min.

For ammonium laureth ether sulfate [AES-A], in series [1], the “Surface tension 1:200” value came out at 34.9 mN/m and the “Surface tension 1:6000” value stood at 32.9 mN/m.

On to Sulfobetaine [ASB], for which, in series [1], the “Surface tension 1:200” value was found to be 35.3 mN/m and the “Surface tension 1:6000” value was 47.5 mN/m. The same molecule had a survival time with fish of 42 min.

For `CCCCCCCCCCCC(=O)N(C)CC(=O)[O-].[Na+]` [Shampoo 4202, Sodium lauroyl sarcosinate (30%)], in series [1], the “Surface tension 1:200” value is given as 27.9 mN/m and the “Surface tension 1:6000” value worked out at 64.8 mN/m. In the series on fish, the survival time is over 1440 min and the fish survival came to 24 h.

On to Sodium α-alkenyl sulfonate [AOS], for which, in series [1], the “Surface tension 1:200” value came out at 31.8 mN/m and the “Surface tension 1:6000” value is 41.8 mN/m.

(Values after patent US20230293412A1, “SHAMPOOS AND METHODS OF PREPARING AND USING THE SAME” (SHANDONG BENZHEN COSMETICS CO., LTD, priority 2020, published 2023).)
